pIC50: −log10 of the molar value. Where two headings read alike, the source gives them in different places.
Assays:
human P2X7 receptor = human P2X7 receptor (Homo sapiens (Human), UniProt Q99572); assay: Pore permeation assay (YO PRO dye uptake); assay type: cell-based
Procedure: Agonist-induced pore formation was determined by measuring cellular uptake of YO PRO fluorescence dye in HEK293 transfected with human P2X7 receptor. A HEK293 cell over expressing human P2X7 was harvested using HQTase reagent to detach the cells from T75 cm flask. The harvested cells are centrifuged @1200 rpm for 5 min at room temperature. The viability of cells was determined by Trypan blue dye and the cells are plated @10,000 cell/well in 50 ul volume in a 384W BD Poly lysine coated plate and incubated overnight at 37 C. […] The plate was centrifuged at 1000 rpm for 5 seconds and incubated at room temperature for 30 minutes. The uptake of YO PRO dye into the cells was measured using Envision Fluorescence plate reader instrument (Perkin Elmer).

[1] = target: P2X7 (IL-1β release from THP-1 cells) (Homo sapiens (Human), UniProt Q99572); assay: IL-1β release assay; assay type: cell-based
Procedure: IL-1β release assay: The activation of P2X7 by ATP leads to a fast transient activation of cells resulting in influx of Ca^2+ followed by conversion of pro-IL-1β to active IL-1β. The functional activity of P2X7 compounds was measured by the release of mature […] in the culture medium of THP-1 cells, detected by sandwich ELISA. […] THP-1 cells were harvested from the flask in 50 ml by centrifugation for 3 min at 100 g. The cells were resuspended to 2×10^5 cells/ml in medium supplemented with 0.5 μM PMA and incubated. The cells were washed and resuspended to 1.5×10^5 cells/ml in medium complemented with 10 ng/ml LPS, and the cells were primed for 4 h at 37° C., 5% CO2. After addition of 20 μL of prediluted test compounds, blank, standard and control reagents, cells were incubated for a further 20 min at 37° C. and stimulated with 0.8 mM BzATP for 30 minutes. The cells were centrifuged, supernatant was collected and the presence of mature IL-1β was detected using Dual human IL-1b kit following manufacturer's instruction. The tetrahydrobenzodiazepine analogs effectively modulated the activity of P2X7 in the cells as measured by the levels of pro-inflammatory cytokine IL-1β, which is released by the activation of P2X7 receptor.

[2] = THP-1 cells, LPS primed, 0.8 mM BzATP, mature IL-1β by sandwich ELISA, read-out: hTHP-1/IL-ib IC50
[3] = HEK293 transfected with human P2X7, BzATP 10 uM, YO PRO dye uptake, read-out: hP2X7 IC50

Sequence of P2X7 (IL-1β release from THP-1 cells) (Q99572 whole entry): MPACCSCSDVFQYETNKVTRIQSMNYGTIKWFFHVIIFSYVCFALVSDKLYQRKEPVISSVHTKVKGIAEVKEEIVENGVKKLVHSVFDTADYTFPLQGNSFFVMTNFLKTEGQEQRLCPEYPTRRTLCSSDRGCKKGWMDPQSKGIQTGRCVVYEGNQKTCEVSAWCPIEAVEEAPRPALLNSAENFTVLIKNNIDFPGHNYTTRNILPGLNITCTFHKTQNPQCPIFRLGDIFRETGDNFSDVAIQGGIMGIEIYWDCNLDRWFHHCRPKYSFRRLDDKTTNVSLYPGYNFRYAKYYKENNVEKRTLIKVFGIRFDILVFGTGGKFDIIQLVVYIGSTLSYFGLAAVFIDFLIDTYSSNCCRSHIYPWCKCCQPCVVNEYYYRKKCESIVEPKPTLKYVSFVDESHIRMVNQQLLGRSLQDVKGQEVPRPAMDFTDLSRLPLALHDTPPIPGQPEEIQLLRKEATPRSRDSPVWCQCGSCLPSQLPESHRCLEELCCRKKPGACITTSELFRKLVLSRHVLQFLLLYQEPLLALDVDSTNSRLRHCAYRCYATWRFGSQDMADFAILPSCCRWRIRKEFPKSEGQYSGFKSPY
Sequence of human P2X7 receptor (Q99572 whole entry): as above

`COCCn1cc(C(=O)NCC(C)c2ccccc2Cl)c2c(Cl)cccc21` (centres unmarked) [Compound 33, 4-chloro-N-(2-(2-chlorophenyl)propyl)-1-(2-methoxyethyl)-1H-indole-3-carboxamide] was tested. Which pIC50 (human P2X7 receptor) did it give?
The pIC50 was 6.30 to 7.00.

What about the pIC50 [1, 2] of the same compound?
Its pIC50 is under 6.00.

With `O=C(NC[C@]1(O)CCCC(F)(F)C1)c1cn(C[C@@H]2CCCO2)c2cccc(Cl)c12` [Compound 130, 4-chloro-N—(((S)-3,3-difluoro-1-hydroxycyclohexyl)methyl)-1-(((S)-tetrahydrofuran-2-yl)methyl)-1H-indole-3-carboxamide] as the compound, how does the pIC50 (human P2X7 receptor) read?
Its pIC50 is 7.00 to 8.00.

What about the pIC50 [1] of the same compound?
Its pIC50 is 7.00 to 8.00.

With `O=C(NCC1CCC(F)(F)CC1)c1cn(CC2CCCNC2)c2cccc(Cl)c12` (centres unmarked) [Compound 174, 4-chloro-N-((4,4-difluorocyclohexyl)methyl)-1-(piperidin-3-ylmethyl)-1H-indole-3-carboxamide] as the compound, how does the pIC50 (human P2X7 receptor) read?
Its pIC50 is 7.00 to 8.00.

What about the pIC50 [1] of the same compound?
Its pIC50 is 7.00 to 8.00.

`O=C(NCC1CCC(F)(F)CC1)c1cn(CCN2CCCC2)c2cccc(Cl)c12` [Compound 179, 4-chloro-N-((4,4-difluorocyclohexyl)methyl)-1-(2-(pyrrolidin-1-yl)ethyl)-1H-indole-3-carboxamide] was tested. Which pIC50 (human P2X7 receptor) did it give?
The pIC50 was 6.30 to 7.00.

What about the pIC50 [1] of the same compound?
The pIC50 was 6.30 to 7.00.

With `O=C(NCC1CCC(F)(F)CC1)c1cn(CCN2CCCCC2)c2cccc(Cl)c12` [Compound 193, 4-chloro-N-((4,4-difluorocyclohexyl)methyl)-1-(2-(piperidin-1-yl)ethyl)-1H-indole-3-carboxamide] as the compound, how does the pIC50 (human P2X7 receptor) read?
The pIC50 was 7.00 to 8.00.

And the pIC50 [1]?
Its pIC50 is 7.00 to 8.00.

With `CC(=O)N1CC[C@H]1Cn1cc(C(=O)NCC2CCC(F)(F)CC2)c2c(Cl)cccc21` [Compound 181, (S)-1-((1-acetylazetidin-2-yl)methyl)-4-chloro-N-((4,4-difluorocyclohexyl)methyl)-1H-indole-3-carboxamide] as the compound, how does the pIC50 (human P2X7 receptor; [3]) read?
The pIC50 was 6.30 to 7.00.

And the pIC50 [1, 2]?
The pIC50 was 6.30 to 7.00.

Which results are given for `O=C1NC[C@H](Cn2cc(C(=O)NCC3CCC(F)(F)CC3)c3c(Cl)cccc32)O1` [Compound 126, (R)-4-chloro-N-((4,4-difluorocyclohexyl)methyl)-1-((2-oxooxazolidin-5-yl)methyl)-1H-indole-3-carboxamide]?
pIC50 (human P2X7 receptor): 7.00 to 8.00; pIC50 [1]: 7.00 to 8.00

How did the pIC50 (human P2X7 receptor) turn out when `CC(C)N(C)C(=O)Cn1cc(C(=O)NCC2CCC(F)(F)CC2)c2c(Cl)cccc21` [Compound 203, 4-Chloro-1-[(isopropyl-methyl-carbamoyl)-methyl]-1H-indole-3-carboxylic acid (4,4-difluoro-cyclohexylmethyl)-amide] was run?
The pIC50 was 7.00 to 8.00.

What about the pIC50 [1] of the same compound?
The pIC50 was 6.30 to 7.00.

`C[C@@H]1CCC[C@](O)(CNC(=O)c2cn(C3CCOC3)c3cccc(Cl)c23)C1` (stereo partly drawn) [Compound 113, 4-chloro-N-(((1R,3R)-1-hydroxy-3-methylcyclohexyl)methyl)-1-(tetrahydrofuran-3-yl)-1H-indole-3-carboxamide] was tested. Which pIC50 (human P2X7 receptor) did it give?
The pIC50 was 7.00 to 8.00.

And the pIC50 [1]?
Its pIC50 is 7.00 to 8.00.

How did the pIC50 (human P2X7 receptor) turn out when `O=C1CC[C@H](Cn2cc(C(=O)NCC3CCC(F)(F)CC3)c3c(Cl)cccc32)N1` [Compound 162, (R)-4-chloro-N-((4,4-difluorocyclohexyl)methyl)-1-((5-oxopyrrolidin-2-yl)methyl)-1H-indole-3-carboxamide] was run?
The pIC50 was 7.00 to 8.00.

What about the pIC50 [1] of the same compound?
The pIC50 was 7.00 to 8.00.

How did the pIC50 (human P2X7 receptor) turn out when `O=C(NCC1(O)CCC(F)(F)CC1)c1cn(CC2CCO2)c2cccc(Cl)c12` (centres unmarked) [Compound 115, 4-chloro-N-((4,4-difluoro-1-hydroxycyclohexyl)methyl)-1-(oxetan-2-ylmethyl)-1H-indole-3-carboxamide] was run?
Its pIC50 is 6.30 to 7.00.

What about the pIC50 [1] of the same compound?
The pIC50 was 6.30 to 7.00.

Which results are given for `O=C(NC[C@]1(O)CCCC(F)(F)C1)c1cn(CCN2CCCC2)c2cccc(Cl)c12` [Compound 177, (S)-4-chloro-N-((3,3-difluoro-1-hydroxycyclohexyl)methyl)-1-(2-(pyrrolidin-1-yl)ethyl)-1H-indole-3-carboxamide]?
pIC50 (human P2X7 receptor): 6.30 to 7.00; pIC50 [1]: 6.30 to 7.00

How did the pIC50 (human P2X7 receptor; [3]) turn out when `O=C(NCC1CCC(F)(F)CC1)c1cn(CC2CCCN2)c2cccc(Cl)c12` (centres unmarked) [Compound 158, 4-chloro-N-((4,4-difluorocyclohexyl)methyl)-1-(pyrrolidin-2-ylmethyl)-1H-indole-3-carboxamide] was run?
The pIC50 was over 8.00.

And the pIC50 [1, 2]?
The pIC50 was over 8.00.

Which results are given for `CN1CCOC(Cn2cc(C(=O)NCC3CCC(F)(F)CC3)c3c(Cl)cccc32)C1` (centres unmarked) [Compound 183, 4-chloro-N-((4,4-difluorocyclohexyl)methyl)-1-((4-methylmorpholin-2-yl)methyl)-1H-indole-3-carboxamide]?
pIC50 (human P2X7 receptor): 7.00 to 8.00; pIC50 [1]: 7.00 to 8.00

`O=C(NCC1CCC(F)(F)CC1)c1cn(CCO)c2cccc(C(F)(F)F)c12` [Compound 198, N-((4,4-difluorocyclohexyl)methyl)-1-(2-hydroxyethyl)-4-(trifluoromethyl)-1H-indole-3-carboxamide] was tested. Which pIC50 (human P2X7 receptor) did it give?
The pIC50 was 6.30 to 7.00.

What about the pIC50 [1] of the same compound?
The pIC50 was 7.00 to 8.00.

With `O=C(NCC(c1ccccc1)C1CCCC1)c1cn(C2COC2)c2cccc(Cl)c12` (centres unmarked) [Compound 70, 4-Chloro-1-oxetan-3-yl-1H-indole-3-carboxylic acid (2-cyclopentyl-2-phenyl-ethyl)-amide] as the compound, how does the pIC50 (human P2X7 receptor) read?
The pIC50 was 7.00 to 8.00.

And the pIC50 [1]?
The pIC50 was 6.30 to 7.00.

What does the source list for `O=C(NC[C@H]1CCCC[C@H]1O)c1cn(C2COC2)c2cccc(Cl)c12` [Compound 88, cis-4-Chloro-1-oxetan-3-yl-1H-indole-3-carboxylic acid ((1R,2R)-2-hydroxy-cyclohexylmethyl)-amide]?
pIC50 (human P2X7 receptor): 6.30 to 7.00; pIC50 [1, 2]: < 6.00

How did the pIC50 (human P2X7 receptor; [3]) turn out when `COCCn1cc(C(=O)NC(CO)c2cccc(C(F)(F)F)c2Cl)c2c(Cl)cccc21` (centres unmarked) [Compound 32, 4-chloro-N-(1-(2-chloro-3-(trifluoromethyl)phenyl)-2-hydroxyethyl)-1-(2-methoxyethyl)-1H-indole-3-carboxamide] was run?
Its pIC50 is 6.30 to 7.00.

And the pIC50 [1, 2]?
The pIC50 was 6.00 to 6.30.

Which results are given for `O=C(NCC1(O)CCC(F)(F)CC1)c1cn(C[C@H]2CCCO2)c2cccc(Cl)c12` [Compound 131, (R)-4-chloro-N-((4,4-difluoro-1-hydroxycyclohexyl)methyl)-1-((tetrahydrofuran-2-yl)methyl)-1H-indole-3-carboxamide]?
pIC50 (human P2X7 receptor): 7.00 to 8.00; pIC50 [1]: 7.00 to 8.00

How did the pIC50 (human P2X7 receptor) turn out when `O=C(NCC1CCC(F)(F)CC1)c1cn(C[C@H]2CCCO2)c2cccc(Cl)c12` [Compound 135, (R)-4-chloro-N-((4,4-difluorocyclohexyl)methyl)-1-((tetrahydrofuran-2-yl)methyl)-1H-indole-3-carboxamide] was run?
Its pIC50 is 7.00 to 8.00.

What about the pIC50 [1] of the same compound?
The pIC50 was 7.00 to 8.00.

Which results are given for `O=C(NCC1CCC(F)(F)CC1)c1cn(CC2CCCCO2)c2cccc(Cl)c12` (centres unmarked) [Compound 167, 4-chloro-N-((4,4-difluorocyclohexyl)methyl)-1-((tetrahydro-2H-pyran-2-yl)methyl)-1H-indole-3-carboxamide]?
pIC50 (human P2X7 receptor): 7.00 to 8.00; pIC50 [1]: 7.00 to 8.00

`CN1C(=O)CC[C@@H]1Cn1cc(C(=O)NCC2CCC(F)(F)CC2)c2c(Cl)cccc21` [Compound 182, (R)-4-chloro-N-((4,4-difluorocyclohexyl)methyl)-1-((1-methyl-5-oxopyrrolidin-2-yl)methyl)-1H-indole-3-carboxamide] was tested. Which pIC50 (human P2X7 receptor) did it give?
The pIC50 was 7.00 to 8.00.

And the pIC50 [1]?
The pIC50 was 7.00 to 8.00.

Which results are given for `O=C(NC[C@@]1(O)CCCC(F)(F)C1)c1cn(C[C@@H]2CCCO2)c2cccc(Cl)c12` [Compound 129]?
pIC50 (human P2X7 receptor): 6.30 to 7.00; pIC50 [1]: 6.00 to 6.30

Which results are given for `C[C@@H]1CCC[C@](O)(CNC(=O)c2cn(C3COC3)c3cccc(Cl)c23)C1` [Compound 93, 4-chloro-N-(((1R,3R)-1-hydroxy-3-methylcyclohexyl)methyl)-1-(oxetan-3-yl)-1H-indole-3-carboxamide]?
pIC50 (human P2X7 receptor; [3]): > 8.00; pIC50 [1]: 7.00 to 8.00

How did the pIC50 (human P2X7 receptor) turn out when `O=C(NCC1CCCC(C(F)(F)F)C1)c1cn(C2COC2)c2cccc(Cl)c12` (centres unmarked) [Compound 56, 4-Chloro-1-oxetan-3-yl-1H-indole-3-carboxylic acid (3-trifluoromethyl-cyclohexylmethyl)-amide] was run?
Its pIC50 is 7.00 to 8.00.

And the pIC50 [1]?
The pIC50 was 6.30 to 7.00.

Which results are given for `CN1CCC[C@H]1Cn1cc(C(=O)NCC2(O)CCC(F)(F)CC2)c2c(Cl)cccc21` [Compound 169, (S)-4-chloro-N-((4,4-difluoro-1-hydroxycyclohexyl)methyl)-1-((1-methylpyrrolidin-2-yl)methyl)-1H-indole-3-carboxamide]?
pIC50 (human P2X7 receptor): 7.00 to 8.00; pIC50 [1]: 7.00 to 8.00

`O=C(NC[C@@]1(O)CCCC(F)(F)C1)c1cn(CCN2CCCC2)c2cccc(Cl)c12` [Compound 176, (R)-4-chloro-N-((3,3-difluoro-1-hydroxycyclohexyl)methyl)-1-(2-(pyrrolidin-1-yl)ethyl)-1H-indole-3-carboxamide] was tested. Which pIC50 (human P2X7 receptor; [3]) did it give?
Its pIC50 is under 6.00.

What about the pIC50 [1, 2] of the same compound?
The pIC50 was under 6.00.

Which results are given for `O=C(NCC[C@@H]1C[C@@H]2C=C[C@H]1C2)c1cn(C2COC2)c2cccc(Cl)c12` [Compound 75, 4-Chloro-1-oxetan-3-yl-1H-indole-3-carboxylic acid ((1S,2S,4S)-2-bicyclo[2.2.1]hept-5-en-2-yl-ethyl)-amide]?
pIC50 (human P2X7 receptor; [3]): > 8.00; pIC50 [1]: 7.00 to 8.00
